From US4649203A, “Ketoalkylphospholipids” (Takeda Chemical Industries, Ltd., priority 1983, dated 1987)
In brackets after ≈: the same amount, converted by molar mass. Where two headings read alike, the source gives them in different places.

Experiments:
sarcoma 180 cells [1] = assay: Antitumor activity, sarcoma 180, drug given 4 days before inoculation (Test Examples 1 and 7); format: in vivo, ICR mice; settings: for Number of surviving animals/Number of animals tested: 47th day, conditions of Test Example 1; for life span prolonging ratio (T/C): ICR mice, 1 mg/mouse, 4 days before i.p. inoculation of 1×10^5 sarcoma 180 cells
Method: Four days later, 1×10^5 sarcoma 180 cells were inoculated intraperitoneally into each mouse. […] The compounds of Examples 1, 4 and 6 were tested under the same conditions as Test Example 1. The value of the number of surviving animals represents the number of animals which survived on the 47th day.

sarcoma 180 cells [2] = assay: Antitumor activity, sarcoma 180, drug given after inoculation (Test Examples 2, 3 and 8); format: in vivo, ICR mice; settings: for Number of surviving animals/Number of animals tested: 47th day, conditions of Test Example 2; for life span prolonging ratio (T/C): ICR mice, 0.33 mg/mouse at hour 1, day 1 and day 2 after i.p. sarcoma 180 inoculation
Excerpt: ICR mice (5 animals per group) were intraperitoneally inoculated with 1×10^5 sarcoma 180 cells per mouse. […] The life span prolonging ratio as compared with the control (no drug treatment) group was 206. […] The life span prolonging ratio was 257. […] The value of the number of surviving animals represents the number of animals which survived on the 47th day.

[3] = Toxicity testing, LD50 (Test Example 11); settings: mouse, in vivo, ip; ICR mice, intraperitoneal, in physiological saline
Method: LD50 values were determined in ICR mice by intraperitoneally administering each test compound in the form of a solution in physiological saline.

MM46 cells = assay: Antitumor activity, MM46 (Test Example 6); format: in vivo, C3H/He mice; settings: 5 animals per group; 0.25 mg/mouse i.p. 4 days before and 4 days after inoculation; controls all died within 21 days
Method: The compound of Example 7 was intraperitoneally administered to C3H/He mice (5 animals per group) in a dose of 0.25 mg/mouse for 4 consecutive days.
On the 5th day, 1×10^4 MM46 cells were intraperitoneally inoculated into each mouse, and the compound of Example 7 was again administered intraperitoneally to the mice in a dose of 0.25 mg/mouse for 4 days starting from day 1 after inoculation.

washed PRP (platelets) = assay: Action on platelets: platelet aggregation caused by test drug (Test Example 9); format: cell-based; settings: 3×10^-5 M, rabbit washed PRP, 37° C.
Method: A blood sample was taken from a male rabbit using a syringe containing 3.15% citric acid (1 to 9 volumes of blood) as anticoagulant, and centrifuged at 1000 rpm and room temperature for 10 minutes to give platelet rich plasma (PRP). The PRP was further centrifuged at 1400 rpm for 15 minutes. The platelet pellet thus obtained was suspended in Ca^++ -free Tyrode (containing 0.25% of gelatin). A 250 μl portion of the thus-prepared washed PRP was stirred at 37° C. for 2 minutes, then 25 μl of 0.2-0.5 mM Ca^++ solution was added and the mixture was further stirred for 30 seconds. Thereafter, the test drug was added in an amount sufficient to make a concentration of 3×10^-5M. Platelet aggregation was measured using an aggregation meter (Rigaku Denki).

P388 leukemia cells = assay: Antitumor activity, P388 leukemia (Test Example 5); format: in vivo; settings: CDF1 mice, 1 mg/mouse i.p. once per day for 14 days
Method: CDF1 mice (5 animals per group) were each intraperitoneally inoculated with 1×10^5 P388 leukemia cells. Separately, a solution of the compound of Example 7 in physiological saline was intraperitoneally administered to the mice in a dose of 1 mg/mouse once per day for 14 consecutive days starting from day 1 after tumor implantation. The life span prolonging ratio as compared with the control group was 140.

blood pressure = settings: rat, in vivo, iv
Method: Seven-week-old male Spraugue-Dawley rats (200-290 g) were anesthesized by intraperitoneal administration of 60 mg/kg of pentobarbital sodium and the left carotid artery (for blood pressure measurement) and left femoral vein (for intravenous drug administration) were cannulated.

Meth A sacoma cells = assay: Antitumor activity, Meth A sarcoma (Test Example 4); format: in vivo, Balb/C mice; settings: 0.5 mg/mouse once daily for 5 days at site of inoculation; tumors weighed day 15
Method: Balb/C mice (5 animals per group) were each subcutaneously inoculated with 1×10^5 Meth A sacoma cells. Separately, a solution of the compound of Example 7 in physiological saline was administered to the mice at the site of inoculation in a dose of 0.5 mg/mouse once daily for 5 consecutive days starting from day 1 after tumor cell inoculation. On day 15, the tumor tissues were excised and weighed. The inhibition ratio as compared with the control group was 83%.

PAF = assay: Anti-PAF activity, inhibition of PAF-induced platelet aggregation (Test Example 14); format: cell-based; settings: Oryctolagus cuniculus, 3×10^-5 M, rabbit washed PRP, read-out: percentage inhibition of maximum aggregation due to PAF
Method: A blood sample was taken directly from a male rabbit using a syringe containing 3.15% citric acid (1 to 9 volumes of blood) as anticoagulant, and centrifuged at 1000 rpm and room temperature for 10 minutes to give platelet rich plasma (PRP). The PRP was further centrifuged at 1400 rpm for 15 minutes. The platelet pellet thus obtained was suspended in Ca^++ -free Tyrode (containing 0.25% of gelatin). A 250-μl portion of the thus-prepared washed PRP was stirred at 37° C. for 2 minutes, then 25 μl of 0.2-0.5 mM Ca^++ solution was added and the mixture was further stirred for 30 seconds. Thereafter, the compound of Example 8 was added to a concentration of 3×10^-5 M. Platelet aggregation was measured with an aggregation meter (Rigaku Denki). The activity of the compound of Example 8 as determined in terms of percentage inhibition based on the maximum light transmittance (maximum aggregation) due to PAF in the control PRP was 94%.

Sclerotinia sclerotiorum = assay: Antifungal activity, serial dilution method; format: cell-based; settings: 1% glucose bouillon agar, read-out: MIC, Sclerotinia sclerotiorum (kidney bean stem rot)
Botrytis cinerea = assay: Antifungal activity, serial dilution method; format: cell-based; settings: 1% glucose bouillon agar, read-out: MIC, Botrytis cinerea (gray mold)
platelets = settings: Hanahan et al., Biochem. Biophys. Res. Commun., 99, 183 (1981); cited from earlier work
Tetrahymena pyriformis W = assay: Microprotozoal growth inhibiting activity, liquid dilution method (Test Example 13); format: cell-based; settings: 28° C., 44-48 hours, pH 7.0
Method: The compounds given in Table 4 were tested for microprotozoal growth inhibiting activity (expressed in terms of MIC) in Tetrahymena pyriformis W by the liquid dilution method by cultivating said test microorganism in a test medium [20 g of Tryptose peptone (Difco), 1 g of yeast extract, 2 g of glucose, 1000 ml of distilled water, 10 ml of 1M phosphate buffer, pH 7.0] at 28° C. for 44-48 hours.

Pyricularia oryzae = assay: microbe, parasite or virus in culture; format: cell-based; settings: read-out: MIC, Pyricularia oryzae (rice blast)
[4] = Adverse effects (general statement)
Cercospora beticola = assay: Antifungal activity, serial dilution method; format: cell-based; settings: read-out: MIC, Cercospora beticola (sugar beat leaf spot)
Elsinoe fawcetti = assay: Antifungal activity, serial dilution method; format: cell-based; settings: 1% glucose bouillon agar; read-out: MIC, Elsinoe fawcetti (citrus scab)
Diaporthe citri = assay: Antifungal activity, serial dilution method; format: cell-based; settings: 1% glucose bouillon agar, read-out: MIC, Diaporthe citri (citrus melanose)

Row | Compound | Number of surviving animals/Number of animals tested (sarcoma 180 cells [1]) | life span prolonging ratio (T/C) (sarcoma 180 cells [1]) | Number of surviving animals/Number of animals tested (sarcoma 180 cells [2]) | life span prolonging ratio (T/C) (sarcoma 180 cells [2]) | LD50 [3] [mg/kg] | Hypotensive action [duration] (blood pressure) [s] | Hypotensive action ΔP (blood pressure) [mmHg] | MIC (Sclerotinia sclerotiorum) [µg/mL] | MIC (Botrytis cinerea) [µg/mL] | MIC (Tetrahymena pyriformis W) [µg/mL] | MIC (Pyricularia oryzae) [µg/mL] | also measured
1 | CCCCCCCCCCCCCCCC(=O)COCC(COP(=O)([O-])OCC[N+](C)(C)C)OC (centres unmarked) [Example 1, 3-(2-Oxoheptadecyloxy)-2-methoxypropyl 2-trimethylammonioethyl phosphate] | 0/5 | 290 | 0/5 | 340 | – | – | – | – | – | – | – | –
2 | CCCCCCCCCCCCCCC(=O)COCC(COP(=O)([O-])OCC[N+](C)(C)C)OC (centres unmarked) [Example 4, 3-(2-Oxohexadecyloxy)-2-methoxypropyl 2-trimethylammonioethyl phosphate] | 0/5 | 224 | 0/5 | 230 | – | – | – | – | – | – | – | –
3 | CCCCCCCCCCCCCCCCCCC(=O)COCC(COP(=O)([O-])OCC[N+](C)(C)C)OC (centres unmarked) [Example 6, 3-(2-Oxoeicosyloxy)-2-methoxypropyl 2-trimethylammonioethyl phosphate] | 1/5 | 236 | 0/5 | 338 | – | – | – | – | – | – | – | –
4 | CCCCCCCCCCCCCCCCC(=O)COCC(COP(=O)([O-])OCC[N+](C)(C)C)OC (centres unmarked) [Example 7, 3-(2-Oxooctadecyloxy)-2-methoxypropyl 2-trimethylammonioethyl phosphate] | – | 180 | – | 206 | > 150 | < 30 | -5 | – | – | – | – | animals survived on day 46 (MM46 cells): 4 animals; platelet aggregation (in words) (washed PRP (platelets)): did not cause aggregation at all; platelet aggregation (in words) (washed PRP (platelets); listed as drawing 39): No aggregation; life span prolonging ratio as compared with the control group (P388 leukemia cells): 140; blood pressure decrease (in words) (blood pressure): no observable blood pressure decrease; inhibition ratio (tumor weight) as compared with control group (Meth A sacoma cells): 83%
5 | CCCCCCCCCCCCCCCCC(=O)COCC(COP(=O)([O-])OCC[n+]1ccsc1)OC (centres unmarked) [Example 8, 3-(2-Oxooctadecyloxy)-2-methoxypropyl 2-thiazolioethyl phosphate] | – | – | – | 257 | > 150 | < 30 | -3 | – | – | – | – | inhibition at 30 µM (PAF): 94%; blood pressure decrease (in words) (blood pressure): no observable blood pressure decrease
6 | CCCCCCCCCCCCCCCCCCOCC(COP(=O)([O-])OCC[N+](C)(C)C)OC (centres unmarked) [compound (XIII), reference compound] | – | 170 | – | – | 25 to 50 | 270 | -43 to -75 | > 100 | 25 (≈ 47.7 µM) | 1 (≈ 1.91 µM) | 6.25 (≈ 11.9 µM) | platelet aggregating activity (in words) (platelets): platelet aggregating activity; adverse effects (in words) [4]: hypotensive activity and local irritation (necrosis) is also noted
7 | CCCCCCCCCCCCCCCCC(=O)COCC(COP(=O)([O-])OCC[N+](C)(C)C)OC (centres unmarked) [drawing 44] | – | – | – | – | – | – | – | – | – | 0.4 (≈ 0.744 µM) | – | –
8 | CCCCCCCCCCCCCCCCC(=O)COCC(COP(=O)([O-])OCC[n+]1ccsc1)OC (centres unmarked) [drawing 45] | – | – | – | – | – | – | – | – | – | 1 to 2 (≈ 1.77 to 3.55 µM) | – | –
9 | CCCCCCCCCCCCCCCCC(=O)COCC(COP(=O)([O-])OCC[N+](C)(C)C)OC (centres unmarked) [drawing 49] | – | – | – | – | – | – | – | 25 (≈ 46.5 µM) | 6.25 (≈ 11.6 µM) | – | 3.12 (≈ 5.8 µM) | MIC (Cercospora beticola): 3.12 µg/mL (≈ 5.8 µM); MIC (Elsinoe fawcetti): 6.25 µg/mL (≈ 11.6 µM); MIC (Diaporthe citri): 6.25 µg/mL (≈ 11.6 µM)
10 | CCCCCCCCCCCCCCCCC(=O)COCC(COP(=O)([O-])OCC[n+]1ccsc1)OC (centres unmarked) [drawing 51] | – | – | – | – | – | – | – | 25 (≈ 44.3 µM) | 100 (≈ 177 µM) | – | 3.12 (≈ 5.53 µM) | MIC (Cercospora beticola; 1% glucose bouillon agar): 12.5 µg/mL (≈ 22.2 µM); MIC (Elsinoe fawcetti): 12.5 µg/mL (≈ 22.2 µM); MIC (Diaporthe citri): 12.5 µg/mL (≈ 22.2 µM)
